From US10597398B2, “Suppression and regeneration promoting effect of low molecular weight compound on cancer and fibrosis” (NATIONAL UNIVERSITY CORPORATION TOTTORI UNIVERSITY, priority 2015, dated 2020)

Experiments:
Type in all cases: cell-based, human
LX-2 cells [1] = assay: Growth inhibitory effect on LX-2 cells; settings: 100 μM
Wnt/β-catenin signaling [2] = assay: Inhibitory effect on Wnt/β-catenin signaling in mesenchymal stem cells (E7-TCF4 luciferase)
Experimental: A pTCF4-CMVpro-GL4.20 plasmid vector, having 3 copies of TCF4 motifs (CCT TTG ATC) upstream of aCMV promoter in a multiple cloning site of pGL4.20 (Promega Corp., Fitchburg, Wis.), was linearized and stably transfected into UE7T-13 cells to prepare E7-TCF4 cells. Also, a pCMVpro-GL4.20 plasmid vector, having a CMV promoter in a multiple cloning site of pGL4.20, was linearized and stably transfected into UE7T-13 cells. The resulting stable cells (E7-CMV cells) were cultured, like UE7T-13 cells, in 10% FBS/DMEM containing 0.25 μg/mL puromycin.
UE7T-13 cells were used to measure Wnt/β-catenin signaling activity. The concentrations of the respective compounds were as described in FIG. 42. Each control sample used was 0.1% DMSO, a solvent for each compound.
First, 70 to 90% confluent E7-TCF4 cells and E7-CMV cells were harvested and seeded (n=3) at 1.6758×10^4 cells/well of a 24-well plate (9.0×10^3 cells/cm^2). One day after that, each compound was added to the cells and the mixture was cultured at 37° C. Day 4 after the compound addition, the culture medium was changed.
At day 1, 4, or 8 after the compound treatment, the culture medium was discarded, and 100 μL of room temperature 5×Passive Lysis Buffer (PLB), which had been diluted 5-fold with MilliQ water, was added to each well. Next, the plate was shaken at room temperature for 15 min and was then frozen at −30° C. overnight. A Luciferase Assay Substrate was diluted with 10 mL of room temperature Luciferase Assay Buffer II to prepare Luciferase Assay Reagent II (LARII). The frozen PLB lysate samples were thawed and permeabilized for 15 min. Then, 10 μL aliquots were added to wells of a 96-well white plate. While 50 μL aliquots of LARII were each added to each well, luminescence was quantified by using a 1420 multi-label counter ARVO MX to determine firefly luciferase activity.

[3] = tested on: cancer stem cells (CD44) in HuH-7 cells; assay: Inhibitory effect on cancer stem cells (FCM analysis of CD44), Example 2.4; settings: for inhibitory effect on cancer stem cells compared with IC-2: comparison with IC-2
Experimental: CD44, a cancer stem cell marker, was used as an indicator to examine an inhibitory effect of each compound on cancer stem cells. The concentrations of the respective compounds were as described in FIG. 32. Each control sample used was 0.1% DMSO, a solvent for each compound. In the figures, the “‡” indicates a significant difference of p<0.01.
First, 70 to 90% confluent HuH-7 cells were harvested and seeded at 1.5×10^6 cells per 10-cm cell culture dish. After 24 h, each compound was added to the cells and the mixture was cultured at 37° C. At 48 h after the compound treatment, the cells were harvested from each culture dish. The cells were centrifuged at 1000 rpm and at 4° C. for 3 min to remove a supernatant and were then washed twice with 1 mL of 0.5% FBS/2 mM EDTA/PBS. Next, the cells were suspended in 500 μL of 5% BSA/0.5% FBS/2 mM EDTA/PBS for blocking at 4° C. for 15 min. Then, 5 μL of a mouse anti-human CD44 monoclonal antibody (156-3C11, Cell Signaling Technology Inc., Danvers, Mass.) was added to 500 μL of the cell suspension. The mixture was resuspended and subjected to a primary antibody reaction in a dark room at 4° C. for 30 min. After that, the cells were washed 3 times with 1 mL of 0.5% FBS/2 mM EDTA/PBS. Subsequently, 100 μL of Alexa Fluor 488-labeled IgG (H+L) (ab150113, Abcam Ltd., Cambridge, UK), which had been diluted 200-fold with 5% BSA/0.5% FBS/2 mM EDTA/PBS, was added and the cells were suspended. Then, a secondary antibody reaction was carried out in a dark room at 4° C. for 30 min. After that, the cells were washed 3 times with 1 mL of 0.5% FBS/2 mM EDTA/PBS. Thereafter, the cells were suspended in 500 μL of 0.5% FBS/2 mM EDTA/PBS and were made to pass through a 40 μm-mesh column (Becton, Dickinson and Company, Franklin Lakes, N.J.). A Beckman Coulter-Moflo XDP (Beckman Coulter Inc., Fullerton, Calif.) was used for analysis. Following the analysis, further analysis was conducted by adding 2 μL of 0.25 mg/mL Propidium Iodide (PI). The same experiment was repeated four times.

HuH-7 cells = assay: Growth inhibitory effect on cancer cells (WST assay), Example 2.3; settings: for IC50: HuH-7 cells, WST assay, concentrations 0-50 μM, control 0.1% DMSO; for IC50 compared with IC-2: comparison with IC-2
Experimental: HuH-7 cells, a human liver cancer cell line, were cultured on 10-cm cell culture dishes (TPP Techno Plastic Products AG, Trasadingen, Switzerland) by using DMEM under conditions at 5% CO2, 37° C., and 100% humidity. When the cells were 70 to 90% confluent, 200 μL of 0.25% Trypsin/1 mM EDTA solution, which had been prepared by diluting the stock solution 10-fold with PBS (−), was added to detach the cells. Then, the cells were centrifuged at 1000 rpm for 3 min at room temperature. The cells recovered were subcultured at a 1:4 split ratio.
First, 70 to 90% confluent HuH-7 cells were harvested and seeded (n=3) at 5×10^3 cells/well of a 96-well plate (TPP). After 24 h, each compound was added to the cells and the mixture was cultured at 37° C. The concentrations of each compound were 0, 10, 20, 30, 40, and 50 μM. For IC-2-506-1, however, the concentrations used were 0, 10, 20, 25, 30, 40, and 50 μM. Each control sample (0 μM) used was 0.1% DMSO, a solvent for each compound.
Next, 0, 24, 48, and 96 h after the compound treatment, 100 μIL of DMEM-diluted 10% Cell Counting Kit-8 (DOJINDO LABORATORIES, Kumamoto) was added. The mixture was incubated at 37° C. for 60 min and its absorbance (at a measurement wavelength of 450 nm/control wavelength of 600 nm) was measured by using a Sunrise Rainbow RC (Tecan Group Ltd., Mannedorf, Switzerland). Absorbance for the cells alone was calculated by subtracting, from the reading obtained, absorbance for 10% Cell Counting Kit-8 alone.
The “*” in figures indicates a significant difference of p<0.05 between 0.1% DMSO and each compound; and the “**” indicates a significant difference of p<0.01 (the same applies to all the figures in Examples).

mesenchymal stem cell = assay: Hepatocyte differentiation-inducing effect, summary statements on Example 4 (readout not specified); settings: low concentration
From the text: Albumin, a hepatocyte marker, was used as an indicator, and RNA was collected from cells treated with each compound. Next, a hepatocyte differentiation-inducing effect was examined by real-time RT-PCR. The concentrations of the respective compounds were as described in FIG. 35. Each control sample used was 0.1% DMSO, a solvent for each compound.
By using urea synthesis, a hepatocyte function, as an indicator, a hepatocyte differentiation-inducing effect of each compound was investigated.
The cells treated with each compound were subjected to immunofluorescence analysis of albumin, a hepatocyte marker, to investigate a hepatocyte differentiation-inducing effect. The concentrations of the respective compounds were as described in FIG. 37. Each control sample used was 0.1% DMSO, a solvent for each compound.
By using glycogen synthesis, a hepatocyte function, as an indicator, a hepatocyte differentiation-inducing effect of each compound was investigated.

Wnt/β-catenin signaling [4] = assay: Inhibitory effect on Wnt/β-catenin signaling in liver cancer cells (HuH7-TCF4 luciferase); settings: concentration equal to or lower than that of IC-2
Experimental: A pTCF4-CMVpro-GL4.20 plasmid vector, which had been constructed by inserting 3 copies of TCF4 motifs (CCT TTG ATC) upstream of a CMV promoter into a multiple cloning site of pGL4.20 (Promega Corp., Fitchburg, Wis.), was linearized and stably transfected into the HuH-7 cells. The resulting stable cells (HuH7-TCF4 cells) and HuH-7 cells were likewise cultured.
While each compound was added at concentrations where the growth of HuH-7 cells was reduced to about 50% or less, Wnt/β-catenin signaling activity was measured. The concentrations of the respective compounds were as described in FIG. 40. Control samples used were 0.1% DMSO, a solvent for each compound, and 0.5 μM 5-FU.
First, 70 to 90% confluent HuH7-TCF4 cells were harvested and seeded (n=3) at 5.0×10^4 cells/well of a 24-well plate (TPP). After 24 h, each compound was added to the cells and the mixture was cultured at 37° C.
At 48 h after the compound treatment, the culture medium was discarded, and 100 μL of room temperature 5×Passive Lysis Buffer (PLB) (Promega Corp., Fitchburg, Wis.), which had been diluted 5-fold with MilliQ water, was added to each well. Next, the plate was shaken at room temperature for 15 min and was then frozen at −30° C. overnight. A Luciferase Assay Substrate was diluted with 10 mL of room temperature Luciferase Assay Buffer II to prepare Luciferase Assay Reagent II (LARII) (Promega). The frozen PLB lysate samples were thawed and permeabilized for 15 min. Then, 10 μL aliquots were added to wells of a 96-well white plate (Corning Inc., Corning, N.Y.). While 50 μL aliquots of LARII were each added to each well, luminescence was quantified by using a 1420 multi-label counter ARVO MX (PerkinElmer Singapore Pte Ltd., Singapore) to determine firefly luciferase activity. Note that a significant difference was evaluated by using (two-tailed) Student's t-test. The “*” in figures indicates a significant difference of p<0.05 between 0.1% DMSO and each compound; and the “**” indicates a significant difference of p<0.01 (the same applies to all the figures in Examples).

LX-2 cells [5] = assay: Anti-fibrosis effect, summary statements on Example 3 (marker not specified); settings: concentration even lower than that of IC-2
From the text: α-Smooth muscle actin (α-SMA), a fibrosis marker, was used as an indicator, and RNA was collected from LX-2 cells treated with each low-molecular-weight compound. Next, an inhibitory effect on fibrosis was examined by real-time RT-PCR.
In addition, instead of α-SMA, another fibrosis marker collagen, type I, alpha 1 (COL1A1) was used as an indicator, and substantially the same protocol was repeated. The concentrations of each compound used were as described in FIG. 34. Each control sample used was 0.1% DMSO, a solvent for each compound. Here, COL1A1 primers used were 5′-CCT CCA GGG CTC CAA CGA G-3′ and 5′-TCAATCACTGTCTTGCCCCA-3′. The annealing was performed at 58° C. for 5 sec. The measurement results were obtained by dividing the calculated value for the COL1A1 gene by the calculated value for the GAPDH gene.

SMILES	IC50 (HuH-7 cells) [µM]	IC50 compared with IC-2 (HuH-7 cells)	hepatocyte-inducing effect at low concentration (mesenchymal stem cell)	growth inhibitory effect on LX-2 cells (LX-2 cells [1])	inhibitory effect on cancer stem cells compared with IC-2 [3]	inhibitory effect on Wnt/β-catenin signaling pathway in liver cancer cells compared with IC-2 (Wnt/β-catenin signaling [4])	anti-fibrosis effect compared with IC-2, lower concentration (LX-2 cells [5])	other results
NC(=O)N1CCC(=O)N2C(Cc3ccccc3)C(=O)N(Cc3cccc4ccccc34)CC12 (stereo not shown) [Compound 9b-CONH2]				Neither 100 μM of 9b nor 9b-CONH2 exhibited a growth inhibitory effect				
O=C1C(Cc2ccccc2)N2C(=O)CCNC2CN1Cc1cccc2ccccc12 (stereo not shown) [Compound 9b]				Neither 100 μM of 9b nor 9b-CONH2 exhibited a growth inhibitory effect				inhibitory effect on Wnt/β-catenin signaling in mesenchymal stem cells (Wnt/β-catenin signaling [2]; E7-TCF4 cells, day 8 after compound addition, compared with control 0.1% DMSO): all the compounds except for IC-2-Ar-OMe, 9b, and 7c-NT exhibited a significant inhibitory effect
O=C1C(Cc2ccccc2)N2C(=O)CCN(C(=O)NCc3ccc(F)cc3)C2CN1Cc1cccc2ccccc12 (stereo not shown) [IC-2-F]	22.2	lower IC50 than IC-2	exerted a hepatocyte-inducing effect		more potent inhibitory effect on cancer stem cells than IC-2	more potent inhibitory effect	more potent anti-fibrosis effect	

Now from value to molecule, other results behind:

IC50 (HuH-7 cells) [µM]	IC50 compared with IC-2 (HuH-7 cells)	hepatocyte-inducing effect at low concentration (mesenchymal stem cell)	SMILES	growth inhibitory effect on LX-2 cells (LX-2 cells [1])	inhibitory effect on cancer stem cells compared with IC-2 [3]	inhibitory effect on Wnt/β-catenin signaling pathway in liver cancer cells compared with IC-2 (Wnt/β-catenin signaling [4])	anti-fibrosis effect compared with IC-2, lower concentration (LX-2 cells [5])	other results
28.1			O=C1C(Cc2ccccc2)N2C(=O)CCN(C(=O)NCc3ccc([N+](=O)[O-])cc3)C2CN1Cc1cccc2ccccc12 (stereo not shown) [IC-2-NO2]		more potent inhibitory effect on cancer stem cells than IC-2	more potent inhibitory effect		inhibitory effect on Wnt/β-catenin signaling pathway in mesenchymal stem cells compared with IC-2 (Wnt/β-catenin signaling [2]; concentration equal to or lower than that of IC-2): more potent inhibitory effect
11.8	lower IC50 than IC-2	exerted a hepatocyte-inducing effect	CC(C)(C)[Si](C)(C)Oc1ccc(CNC(=O)N2CCC(=O)N3C(Cc4ccccc4)C(=O)N(Cc4cccc5ccccc45)CC23)cc1 (stereo not shown) [IC-2-OTBS]				more potent anti-fibrosis effect	inhibitory effect on cancer stem cells at a concentration lower than that of IC-2 ([3]; concentration even lower than that of IC-2): exerted an inhibitory effect on cancer stem cells; anti-tumor effect compared with IC-2 (HuH-7 cells; at a concentration lower than that of IC-2): more potent anti-tumor effect
